In ChEMBL document CHEMBL1141399, “Synthesis and evaluation of isomeric (17alpha,20E)-11beta-methoxy-21-(trifluoromethylphenyl)-19-norpregna-1,3,5(10),20-tetraene-3,17beta-diols as ERalpha-hormone binding domain ligands: effect of the methoxy group on receptor binding and uterotrophic growth” (J Med Chem, 2007):
Activity calls are given as the source filed them. The calls are words filed in the database; no cut-off is given here.

What follows are molecules tested against T1, Estrogen receptor (Homo sapiens) (UniProt P03372) (assay: Displacement of [3H]estradiol from ERalpha isolated from BL21 cells relative to estradiol at 25 degC).
T1 sequence (whole entry): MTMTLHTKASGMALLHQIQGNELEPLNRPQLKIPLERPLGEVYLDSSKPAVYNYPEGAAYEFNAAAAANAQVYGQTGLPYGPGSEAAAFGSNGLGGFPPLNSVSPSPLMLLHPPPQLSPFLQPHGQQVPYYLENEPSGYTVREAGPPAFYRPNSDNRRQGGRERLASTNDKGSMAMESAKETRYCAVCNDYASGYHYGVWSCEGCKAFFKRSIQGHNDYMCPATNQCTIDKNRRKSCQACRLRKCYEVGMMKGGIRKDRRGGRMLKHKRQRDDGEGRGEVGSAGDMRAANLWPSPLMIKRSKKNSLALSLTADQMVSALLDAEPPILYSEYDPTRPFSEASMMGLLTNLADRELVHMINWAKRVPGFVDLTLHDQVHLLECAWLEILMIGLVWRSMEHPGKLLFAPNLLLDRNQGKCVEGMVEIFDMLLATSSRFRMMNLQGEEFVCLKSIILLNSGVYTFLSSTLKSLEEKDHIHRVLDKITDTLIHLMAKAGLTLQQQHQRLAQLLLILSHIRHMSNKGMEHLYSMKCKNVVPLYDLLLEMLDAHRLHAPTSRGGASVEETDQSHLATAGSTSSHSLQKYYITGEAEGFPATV
Assay type: cell-free

Row | SMILES | RBA
1 | CO[C@H]1C[C@@]2(C)[C@@H](CC[C@@]2(O)/C=C/c2ccccc2C(F)(F)F)[C@@H]2CCc3cc(O)ccc3[C@H]21 | 212
2 | CO[C@H]1C[C@@]2(C)[C@@H](CC[C@@]2(O)/C=C/c2cccc(C(F)(F)F)c2)[C@@H]2CCc3cc(O)ccc3[C@H]21 | 65
3 | C[C@]12CC[C@@H]3c4ccc(O)cc4CC[C@H]3[C@@H]1CC[C@@]2(O)/C=C/c1ccc(C(F)(F)F)cc1 | 8
4 | CO[C@H]1C[C@@]2(C)[C@@H](CC[C@@]2(O)/C=C/c2ccc(C(F)(F)F)cc2)[C@@H]2CCc3cc(O)ccc3[C@H]21 | 5
5 | C[C@]12CC[C@@H]3c4ccc(O)cc4CC[C@H]3[C@@H]1CC[C@@]2(O)/C=C/c1ccccc1C(F)(F)F | 223
6 | CO[C@H]1C[C@@]2(C)[C@@H](CC[C@@]2(O)/C=C/c2ccccc2)[C@@H]2CCc3cc(O)ccc3[C@H]21 | 15
7 | C[C@]12CC[C@@H]3c4ccc(O)cc4CC[C@H]3[C@@H]1CC[C@@]2(O)/C=C/c1ccccc1 | 18
8 | C[C@]12CC[C@@H]3c4ccc(O)cc4CC[C@H]3[C@@H]1CC[C@@]2(O)/C=C/c1cccc(C(F)(F)F)c1 | 75

Organism: Rattus norvegicus
Experiment: Estrogenic efficacy in rat by immature rat uterotrophic growth assay
Assay type: functional, organism-based

Row | SMILES | Activity
9 | C[C@]12CC[C@@H]3c4ccc(O)cc4CC[C@H]3[C@@H]1CC[C@@]2(O)/C=C/c1ccccc1 | inactive
